We go through ten molecules from article PMC12481576, “Barbituric Acid Derivatives as Covalent Inhibitors of Leishmania braziliensis Dihydroorotate Dehydrogenase” (Journal of Medicinal Chemistry, 2025).

The target in one data set is T1, HsDHODH (Homo sapiens, UniProt Q02127).
T1 construct: made in house
As to the kind of experiment: Selectivity assay: HsDHODH single-dose inhibition (DCIP reduction). It counts as biochemical. On the procedure:
[…]. This finding highlights the potential of barbituric acid derivatives as selective inhibitors of LbDHODH.
Human DHODH expression and purification were conducted following a protocol previously established in our laboratory. The purification was carried out by affinity chromatography on a Ni-NTA Agarose column (Qiagen[…] Cat. No. 30210). […] The reaction was performed in triplicate, initiated by adding 195 μL of reaction buffer to 5 μL of HsDHODH protein solution for a final concentration of 20 nM enzyme. As a blank, 195 μL of reaction buffer was added to 5 μL of Buffer A. The reaction was monitored at 610 nm every 3 s over 60 s. As a control, 5 μL of enzyme was added to 195 μL of reaction medium without compound. Enzymatic velocity was calculated, and the percentage of relative enzymatic activity was determined relative to the control.

A short description of data set [1]: Cell viability / cytotoxicity assay (PrestoBlue, 72 h). It counts as cell-based. Conditions: human; THP-1 cell line, 72 h, max 200 μM; read-out: CC50. On the procedure: THP-1 cells (American Type Cell Collection, #TIB-202) were acquired in 2019 and stored frozen in liquid nitrogen. The cells were then maintained in RPMI 1640 (Thermo Fisher Scientific, #S31800–022) at 37 °C in a 5% CO2 atmosphere and routinely tested for Mycoplasma contamination by PCR using the primers 5′-[…] and 5′-[…]. To test the toxicity of compounds, 5000 cells were added to 96-well plates with a final volume of 80 μL centrifuged at 400g for 2 min and incubated with 150 ng/mL of phorbol myristate acetate (Merck, #P8139) for 48 h. The medium was replaced, and after 24 h, the compounds were added and tested at decreasing concentrations starting from 200 μM (10 μL/well). After 72 h of incubation, 10 μL of PrestoBlue Cell Viability Reagent (Thermo Fisher Scientific, #A13262) was added per well. After adding the reagent, the cells were incubated for 2 h at 37 °C in a 5% CO2 atmosphere, and fluorescence readings were performed using the SpectraMax M3 reader (excitation at 560 nm and emission at 590 nm).

A further data set has as its target LbDHODH (Leishmania braziliensis, UniProt E9AI53). As to the kind of experiment: biochemical. Conditions: for IC50: LbDHODH. On the procedure: To assess the ability of compounds 2a–2i to inhibit LbDHODH via covalent bond formation with Cys^131, we initially screened them at a concentration of 100 μM under two conditions: with and without a 4-h preincubation with the enzyme.
The experiments were performed in a 96-well microplate reader (SpectraMax Plus 384, Molecular Devices, USA), containing the […] of the buffer 60 mM DCIP, 50 mM Tris pH 8.15, 150 mM KCl, 0.1% Triton X-100, 50 μM DHO and 10 μM of LbDHODH at 165 nM. The reaction was monitored every 3 s at 610 nm over a period of 60 s, in triplicate, for the control and each concentration of the inhibitor. All assays were performed without incubation (0h) and with 4-h preincubation of the inhibitor with LbDHODH, using 5% DMSO (v/v) as control. […]. […] The resulting kobs values were plotted as a function of inhibitor concentration, and the data in the initial linear region was fit to determine the slope, which is kinact/KI. All regressions were performed with GraphPad Prism 9.

Data set [2] has as its system Leishmania braziliensis promastigotes. Put plainly: Leishmanicidal activity, promastigote growth (SYBR Green, 72 h). The format is cell-based, Leishmania (V.) braziliensis (MHOM/BR/1975/M2904). Conditions: Leishmania braziliensis, L. braziliensis promastigotes, max 200 μM. Here is the method: The cultures were adjusted to 4 × 10^6 parasites per mL, and 50 μL of each culture was added on a test plate with 384 wells (Corning, #CLS3658), along with the controls and compounds to be tested. Previously diluted compounds in DMSO were added to plates in decreasing concentrations, with a maximum concentration of 200 μM. Parasites were exposed to a final concentration of DMSO in various dilutes (final = 0.5%), and the culture medium was used as the control for the experiment. […] After adding the lysis buffer, the plates were incubated in the dark for 2 h with gentle shaking. The readings were done using a SpectraMax M3 reader (excitation at 485 nm and emission at 535 nm).

Where [3] appears, read: read-out: Single dose (0h) % activity.
Setting [4] is: read-out: Single dose (4h) % activity.
[5] abbreviates: 0 h, pH 8.15, read-out: LbDHODH Activity±SD (%).
[6] abbreviates: 4 h, pH 8.15, read-out: LbDHODH Activity±SD (%).
Setting [7] is: IC50 0 h, without preincubation.
Where [8] appears, read: LbDHODH remaining activity, compound 100 μM, 4-h preincubation, read-out: single dose (4 h) % activity.
The mark [9] stands for this setting: LbDHODH remaining activity, compound 100 μM, without preincubation, read-out: single dose (0 h) % activity.

SMILES strings stand for the structures. Where two headings read alike, the source gives them in different places.

T1 sequence (Q02127 whole entry): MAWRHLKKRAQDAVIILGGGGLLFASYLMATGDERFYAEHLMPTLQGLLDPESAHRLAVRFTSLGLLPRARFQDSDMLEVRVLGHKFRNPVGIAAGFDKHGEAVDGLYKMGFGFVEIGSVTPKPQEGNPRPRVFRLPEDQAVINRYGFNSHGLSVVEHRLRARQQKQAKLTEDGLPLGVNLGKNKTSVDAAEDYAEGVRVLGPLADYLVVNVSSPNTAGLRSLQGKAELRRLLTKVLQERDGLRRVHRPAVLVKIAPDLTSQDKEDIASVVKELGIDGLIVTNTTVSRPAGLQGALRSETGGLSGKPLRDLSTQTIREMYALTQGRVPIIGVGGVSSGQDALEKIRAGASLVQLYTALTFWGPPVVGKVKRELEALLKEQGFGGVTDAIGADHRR
Chain of LbDHODH (E9AI53 entry or part of it): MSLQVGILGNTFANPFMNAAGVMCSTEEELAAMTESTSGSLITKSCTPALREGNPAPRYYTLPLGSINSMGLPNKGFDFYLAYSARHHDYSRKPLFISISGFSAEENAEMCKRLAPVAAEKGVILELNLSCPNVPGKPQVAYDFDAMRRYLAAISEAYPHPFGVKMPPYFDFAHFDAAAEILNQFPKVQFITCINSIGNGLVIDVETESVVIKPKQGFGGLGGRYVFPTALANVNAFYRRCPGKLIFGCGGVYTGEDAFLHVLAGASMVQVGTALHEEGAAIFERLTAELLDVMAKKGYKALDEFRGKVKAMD

`O=C1NC(=O)C(=Cc2ccc(C(=O)O)cc2)C(=O)N1` [2b, 4-((2,4,6-Trioxotetrahydropyrimidin-5(2H)-ylidene)methyl)benzoic Acid]: the activity at 100 µM on HsDHODH (setting [3]) came to 105 ± 12%. Also, the activity at 100 µM on HsDHODH (setting [4]) was determined as 99 ± 10%. The CC50 (commonly the concentration that lowers cell viability or growth by half) at 72 h in data set [1] is more than 200 µM. On LbDHODH (setting [5]), the activity at 0.195312 µM was determined as 98 ± 18%, the activity at 0.390625 µM was determined as 96 ± 9%, the activity at 0.78125 µM was found to be 100 ± 8% and the activity at 1.5625 µM was 96 ± 7%. On LbDHODH (setting [5]), the activity at 3.125 µM stood at 97 ± 7%, the activity at 6.25 µM amounted to 94 ± 18%, the activity at 12.5 µM was 97 ± 10% and the activity at 25 µM was 72 ± 10%. In addition, on LbDHODH (setting [5]), the activity at 50 µM stood at 72 ± 6%, the activity at 100 µM turned out to be 65 ± 5%, the activity at 200 µM came out at 60 ± 22% and the activity at 400 µM was found to be 86 ± 18%. At LbDHODH (setting [6]), the activity at 0.195312 µM amounted to 94 ± 11%, the activity at 0.390625 µM was determined as 99 ± 11%, the activity at 0.78125 µM was found to be 91 ± 20% and the activity at 1.5625 µM came to 80 ± 8%. Moreover, on LbDHODH (setting [6]), the activity at 3.125 µM came to 90 ± 6%, the activity at 6.25 µM was determined as 83 ± 13%, the activity at 12.5 µM was determined as 65 ± 4% and the activity at 25 µM worked out at 66 ± 4%. On LbDHODH (setting [6]), the activity at 50 µM was 29 ± 5%, the activity at 100 µM was determined as 15 ± 1%, the activity at 200 µM came out at 13 ± 6% and the activity at 400 µM was 7 ± 2%. Further, the half-maximal inhibitory concentration (IC50) – broadly, the concentration at which inhibition is half-maximal – against LbDHODH (setting [7]) was more than 100 µM. For the same molecule, the half-maximal inhibitory concentration (IC50) on LbDHODH (IC50 4 h, 4-h preincubation) was 22 ± 1 µM. At LbDHODH (setting [3]), the activity at 100 µM came to 70 ± 10%. For the same molecule, the activity at 100 µM at LbDHODH (setting [4]) came out at 10 ± 2%. Further, at LbDHODH (read-out: enzyme inhibition), the inhibition (in general, the change of the read-out against control, counted positive when it falls) at 100 µM fell in the range of 90 to 93%. In addition, the concentration giving a half-maximal response (EC50) (in general, the midpoint of the concentration-response curve) in data set [2] was more than 200 µM.
As for `O=C1NC(=O)C(Cc2ccccc2)C(=O)N1` [3a, 5-Benzylpyrimidine-2,4,6(1H,3H,5H)-trione], the activity at 100 µM worked out at 109 ± 12% on HsDHODH (setting [3]), 97 ± 9% on HsDHODH (setting [4]), 90 ± 10% on LbDHODH (setting [3]) and 70 ± 8% at LbDHODH (setting [4]). Also, the 50% cytotoxic concentration (CC50) at 72 h in data set [1] was more than 200 µM. For the same molecule, the IC50 on LbDHODH (setting [7]) is more than 100 µM; against LbDHODH (IC50 4 h, 4-h preincubation), more than 100 µM. The same molecule had a concentration for a half-maximal effect (EC50) in data set [2] of more than 200 µM.
For `O=C1NC(=O)C(Cc2ccc(C(=O)O)cc2)C(=O)N1` [3b, 4-((2,4,6-Trioxohexahydropyrimidin-5-yl)methyl)benzoic Acid], the activity at 100 µM is 92 ± 10% at HsDHODH (setting [3]), 83 ± 8% on HsDHODH (setting [4]), 109 ± 3% at LbDHODH (setting [3]) and 69 ± 2% on LbDHODH (setting [4]). In data set [1], the CC50 at 72 h was more than 200 µM. The 50% inhibitory concentration (IC50) on LbDHODH (setting [7]) was more than 100 µM; at LbDHODH (IC50 4 h, 4-h preincubation) it was more than 100 µM. In data set [2], this molecule had an EC50 of more than 200 µM.
With `COc1cc(CC2C(=O)NC(=O)NC2=O)ccc1O` [3c, 5-(4-Hydroxy-3-methoxybenzyl)pyrimidine-2,4,6(1H,3H,5H)-trione], the activity at 100 µM at HsDHODH (setting [3]) was 87 ± 10%; at HsDHODH (setting [4]), 79 ± 8%; at LbDHODH (setting [3]) it was 98 ± 7%; at LbDHODH (setting [4]) it was 60 ± 10%. Also, in data set [1], the half-maximal cytotoxic concentration (CC50) at 72 h is more than 200 µM. In addition, the half-inhibitory concentration (IC50) against LbDHODH (setting [7]) was more than 100 µM; against LbDHODH (IC50 4 h, 4-h preincubation), more than 100 µM. Also, in data set [2], the concentration for a half-maximal effect (EC50) is more than 200 µM.
Take `O=C1NC(=O)C(Cc2ccc(N3CCOCC3)cc2[N+](=O)[O-])C(=O)N1` [3e, 5-(4-Morpholino-2-nitrobenzyl)pyrimidine-2,4,6(1H,3H,5H)-trione]: the activity at 100 µM worked out at 105 ± 12% on HsDHODH (setting [3]), 89 ± 9% on HsDHODH (setting [4]), 90 ± 10% on LbDHODH (setting [3]) and 80 ± 20% on LbDHODH (setting [4]). In data set [1], the CC50 at 72 h was more than 200 µM. The concentration for half-maximal inhibition (IC50) at LbDHODH (setting [7]) was more than 100 µM; against LbDHODH (IC50 4 h, 4-h preincubation) it was more than 100 µM. The same molecule gave a half-maximal effective concentration (EC50) in data set [2] of 23 ± 16 µM.
As to `O=C1NC(=O)C(Cc2ccc(-c3ccccc3)cc2)C(=O)N1` [3f, 5-([1,1′-Biphenyl]-4-ylmethyl)pyrimidine-2,4,6(1H,3H,5H)-trione], the activity at 100 µM is 93 ± 11% on HsDHODH (setting [3]), 102 ± 10% at HsDHODH (setting [4]), 34 ± 6% at LbDHODH (setting [8]) and 83 ± 0.2% at LbDHODH (setting [9]). For the same molecule, the CC50 at 72 h in data set [1] is more than 200 µM. On LbDHODH (LbDHODH remaining activity, compound 100 μM, without preincubation, 100 µM), the “single dose (0 h) % activity” value turned out to be 82.6 ±0.2%. The same molecule gave a concentration giving a half-maximal response (EC50) in data set [2] of more than 200 µM.
As to `O=C1NC(=O)C(Cc2cccc(O)c2)C(=O)N1` [3g, 5-(3-Hydroxybenzyl)pyrimidine-2,4,6(1H,3H,5H)-trione], the activity at 100 µM on HsDHODH (setting [3]) was determined as 87 ± 10%; at HsDHODH (setting [4]), 86 ± 10%; on LbDHODH (setting [8]), 36 ± 3%; at LbDHODH (setting [9]), 93 ± 5%. Besides, the CC50 at 72 h in data set [1] is more than 200 µM. In addition, in data set [2], the half-maximal effective concentration (EC50) is more than 200 µM.
On to `O=C1NC(=O)C(Cc2ccc(-c3ccccc3F)[nH]2)C(=O)N1` [3h, 5-((5-(2-Fluorophenyl)-1H-pyrrol-2-yl)methyl)pyrimidine-2,4,6(1H,3H,5H)-trione], for which the activity at 100 µM at HsDHODH (setting [3]) was determined as 89 ± 10%; at HsDHODH (setting [4]), 91 ± 9%; at LbDHODH (setting [3]) it was 80 ± 10%; on LbDHODH (setting [4]) it was 80 ± 20%. For the same molecule, the cytotoxic concentration (CC50) at 72 h in data set [1] was more than 200 µM. In addition, the IC50 on LbDHODH (setting [7]) was more than 100 µM; against LbDHODH (IC50 4 h, 4-h preincubation), more than 100 µM. Also, the EC50 in data set [2] is more than 200 µM.
For the molecule `O=C1NC(=O)C(CC=Cc2ccccc2)C(=O)N1` [3i, 5-Cinnamylpyrimidine-2,4,6(1H,3H,5H)-trione], the activity at 100 µM came out at 102 ± 12% at HsDHODH (setting [3]), 98 ± 10% at HsDHODH (setting [4]), 103 ± 3% on LbDHODH (setting [3]) and 21 ± 7% at LbDHODH (setting [4]). Also, the CC50 at 72 h in data set [1] is 193 ± 67 µM. Also, in data set [2], the 50% effective concentration (EC50) was more than 200 µM.
For `O=C1NC(=O)C(CCCc2ccccc2)C(=O)N1` [3ii, 5-(3-Phenylpropyl)pyrimidine-2,4,6(1H,3H,5H)-trione], the activity at 100 µM came out at 99 ± 11% on HsDHODH (setting [3]), 96 ± 9% at HsDHODH (setting [4]), 21 ± 7% on LbDHODH (setting [8]) and 98 ± 5% on LbDHODH (setting [9]). For the same molecule, the cytotoxic concentration (CC50) at 72 h in data set [1] is more than 200 µM. This molecule displayed a concentration giving a half-maximal response (EC50) in data set [2] of 23 ± 6 µM.
